These results are taken from patent US20250127803A1, “2'-FUCOSYLLACTOSE AND LACTO-N-NEOTETRAOSE FOR PREVENTING AND TREATING OVERWEIGHT” (HEALTH AND HAPPINESS (H&H) HONG KONG LTD, priority 2022, published 2025).

The assay concerns C. elegans. The experiment in a line: Fat-reducing effect on C. elegans (Nile red lipid staining, fluorescence). The class given is in vivo. Conditions: for Fat Reduction (%) vs. Control: vs NG medium; for effectiveness in reducing the lipid level relative to Orlistat as reference: specific concentrations, summary statement. On the procedure: Plates with a diameter of 100×15 mm have been filled with NGM (Nematode Growth Medium, as standard, hereafter NG medium (Fisher Scientific). Nile red (Sigma, St. Louis, MO, USA) was added to the solid surface of the NGM plates seeded at a final concentration of 0.05 μg/mL
For each of the experiments 2 NG medium plates were used, which had been supplemented with 2′-fucosyllactose in different amounts each, i.e. […] As negative control two plates with NG medium were used. As positive control two NG medium plates with Orlistat® were used.
60 synchronized worms at young adult stage were added to each plate with Escherichia coli strain OP50 as a food source and cultured under aerobic conditions at 20° C.
All worms were subjected to a lipid staining method, following the protocol previously described (Martorell et al., 2016).
All nematodes from each plate were transferred to M9 buffer and the fluorescence was measured using a FP-8300 system (JASCO Analytical Instrument, Easton, MD, USA). Fat deposition in worms was determined by one-way ANOVA test, using a Tukey's multiple comparison post-test.
Results are given as the mean±standard deviation. The statistical analyses were performed with GraphPad Prism 9 software. Statistical significance is indicated at 5%. […]

Several values for one entry are separate records, joined by “and”; a condition that tells them apart may be missing. Identical values can stand only once.

On to `CCCCCCCCCCC[C@@H](C[C@@H]1OC(=O)[C@H]1CCCCCC)OC(=O)[C@H](CC(C)C)NC=O` [Orlistat, (25)-2-Formylamino-4-methylpentansäure-(1S)-1-{[(35,4S)-3-hexyl-2-oxo-4-oxetanyl]methyl}dodecylester, reference compound], for which the “Fat Reduction (%) vs. Control” value is 31.14% and 30.40% (6 μg/mL in NG medium, positive control); 31.14% (6 μg/mL in NG medium, positive control, listed as Orlistate); 30.4% (6 μg/mL in NG medium, positive control, listed as orlistat).
In the case of 2′-fucosyllactose [2′-FL], the “effectiveness in reducing the lipid level relative to Orlistat as reference” value is on record as 70-90%. For the setting “0.01 mg/L in NG medium”, the “Fat Reduction (%) vs. Control” value was −2.38%. Under “0.1 mg/L in NG medium”, the “Fat Reduction (%) vs. Control” value came out at 11.37%. For the same molecule, under “1 mg/L in NG medium”, the “Fat Reduction (%) vs. Control” value was found to be 23.61%. Besides, the “fat reduction compared to negative control conditions (NG medium)” value (from here on “fat reduction … (NG medium)”) (1 mg/mL) was found to be 23.6%. Also, under “1 mg/ml”, the “effectiveness relative to the positive control orlistat” value is listed as “about 78%”. Besides, where the note is “10 mg/L in NG medium”, the “Fat Reduction (%) vs. Control” value amounted to 25.35%. Also, the “fat reduction … (NG medium)” value (10 mg/mL) is given as 25.3%. Further, the “effectiveness relative to the positive control orlistat” value (10 mg/ml) is reported as approximately 83%. Moreover, where the note is “30 mg/L in NG medium”, the “Fat Reduction (%) vs. Control” value is listed as 5.28%. For the same molecule, the “effect on fat content in nematodes” value (the lower and higher doses) is given as “no functional effect”.
As for `CC(=O)N[C@H]1[C@H](O[C@H]2[C@@H](O)[C@@H](CO)O[C@@H](O[C@H]3[C@H](O)[C@@H](O)C(O)O[C@@H]3CO)[C@@H]2O)O[C@H](CO)[C@@H](O[C@@H]2O[C@H](CO)[C@H](O)[C@H](O)[C@H]2O)[C@@H]1O` (mixture of isomers) [LNnT, Lacto-N-neotetraose], the “effectiveness in reducing the lipid level relative to Orlistat as reference” value is recorded as 40-60%. Moreover, the “Fat Reduction (%) vs. Control” value (0.01 mg/L in NG medium) is on record as −5.01%. The “Fat Reduction (%) vs. Control” value (0.1 mg/L in NG medium) is recorded as −0.08%. Besides, the “Fat Reduction (%) vs. Control” value (1 mg/L in NG medium) is reported as 3.08%. For the same molecule, the “Fat Reduction (%) vs. Control” value (10 mg/L in NG medium) was determined as 14.05%. The “fat reduction … (NG medium)” value (10 mg/mL) came to 14.05%. Besides, the “effectiveness relative to the positive control orlistat” value (10 mg/ml) is on record as “about 45%”. Further, where the note is “30 mg/L in NG medium”, the “Fat Reduction (%) vs. Control” value was −2.39%.
